Source: patent US20220133767A1, “TARGETING MICRORNAS TO OVERCOME DRUG TOLERANCE AND RESISTANCE” (Beth Israel Deaconess Medical Center, Inc., priority 2019, published 2022)
Entries after “also recorded” stand apart in the source; their conditions may differ.

Legend:
[1] = system: pseudohypoxia genes in H1975 cells; assay: qRT-PCR analysis of hypoxia (pseudohypoxia) gene expression; type: cell-based, human
Experimental: Transfection by LNAs in vitro. Tumor cells were plated at 2,000 cells in complete growth medium in a 96 well plate to reach 50-60% confluence. 0˜120 nM of fluorescein-conjugated LNA anti-miR-147b (Sequence: […]; SEQ ID NO: 890) (Cat #4100977-011) or negative control (Sequence: TAACACGTCTATACGCCCA; SEQ ID NO: 891) (Cat #199006-011, Exiqon) with PureFection (System Biosciences) were applied for transfection. The transfected cells were harvested after culturing for 48 and 72 hours.

H1975 organoids [2] = assay: Fractional viability of H1975 organoids treated with osimertinib, LNA miR-147b inhibitor, DMOG, R59949 or combinations for 14 days; type: cell-based, human
Experimental: (§1) For 3D organoid formation, single-cell suspensions (2000 cells/well/20 μl) were co-plated with geltrex (25 μl) in 96-well non-treated clear plates (Corning, cat #08-772-53). The plate was incubated for 20 minutes at 37° C. followed by adding 100 μl complete growth media. The complete growth media was advanced DMEM/F12 with glutamax (1×), HEPES (1×), 1.25 mM N-Acetylcysteine, 10 mM Nicotinamide, 10 μM Forskolin, B27 (1×), 5 ng/ml Noggin, 100 ng/ml FGF10, 20 ng/ml FGF2, 50 ng/ml EGF, 10 ng/ml PDGFA, 10 ng/ml FGF7, 1% penicillin-streptomycin, and 10 μM Y-27632. Y-27632 was used only for the initial three days because Y27632 is a rock inhibitor preventing apoptosis of single cells (Watanabe et al., Nat. Biotechnol. 25(6):681-686, 2007). PDGFA and FGF7 were not used until day 7 in organoid cultures because they are important for alveolarization during late lung development (Padela et al., Pediatr. Res. 63(3):232-8, 2008; Bostrom et al., Cell 85(6):863-873, 1996). FGF10 is essential for maintenance of lung progenitor cells and branching morphogenesis as well as tissue homeostasis in the adult lung (Sekine et al., Nat. Genet. 21(1):138-141, 1999). […] The organoids were photographed with a microscope (Evos Fla., Life Technology) and their size was measured by ImageJ. […]

H1975 organoids [3] = assay: Osimertinib treatment response (cell viability) on H1975 organoids transfected with LNA miR-147b inhibitor; type: cell-based, human; conditions: 120 nM LNA miR-147b inhibitor
Experimental: as §1

PDX_LU_10 organoids = assay: Pretreatment response on lung PDX organoids (organoid size); type: cell-based, human
Excerpt: Patient-derived Xenograft Tumor Specimens. Tumor samples from patient-derived xenografts (PDXs) were generated at The Jackson Laboratory and the Yale Cancer Center by subcutaneous implantation of previously passaged tumors in up to 5 female NSG mice. When tumor samples reached 1000 mm^3 they were shipped to the laboratory in frozen media of DMEM with 90% FBS and 10% DMSO in dry ice. Samples were washed with cold phosphate buffer saline (PBS) with antibiotics (Sigma-Aldrich, St. Louis, Mo.) three times, chopped with a sterile blade, and incubated in 0.001% deoxyribonuclease (DNase) (Sigma-Aldrich, St. Louis, Mo.), 1 mg/ml collagenase/dispase (Roche, Indianapolis, Ind.), 200 U/ml penicillin, 200 μg/ml streptomycin, 0.5 μg/ml amphotericin B (2% antibiotics, Sigma) in DMEM/F12 medium (GIBCO, Grandlsland, N.Y.) at 37° C. water bath for 3 hours with intermittent shaking. After incubation, the suspensions were repeatedly triturated, passed through 70 μm and 40 μm cell-strainers (BD Falcon, San Jose, Calif.), and centrifuged at 122 g for 5 minutes at 4° C. Cells were resuspended in red blood cell lysis buffer (eBioscience, San Diego, Calif.) for 4 minutes at room temperature with intermittent shaking, before resuspension in serum-free medium. After lysis, cell viability was evaluated by trypan blue dye exclusion.
(§2) The plate was incubated for 20 minutes at 37° C. followed by adding 100 μl complete growth media. […] The media was changed every three days in 24 days. The organoids were photographed with a microscope (Evos Fla., Life Technology) and their size was measured by ImageJ.
Transfection by LNAs in vitro. Tumor cells were plated at 2,000 cells in complete growth medium in a 96 well plate to reach 50-60% confluence. […] The transfected cells were harvested after culturing for 48 and 72 hours.

PC9 cells = assay: Single cell clonogenicity / frequency of drug-tolerant clones; conditions: 0.1, 0.4 and 2 μM gefitinib (all three groups), 14 days, vehicle 8.3%±0.7%
HCC827 cells = system: HCC827 cells
Experimental: (§3) Compound Treatment. Cell viability experiments were performed in 96-well format using opaque white plates (Corning). For 2D monolayer cell cultures and organoids, cells were plated into 96-well plates with 100-2000 cells per well in three-four replicates on day 0. Twenty-four hours after seeding, cells or organoids were exposed to compounds at indicated concentrations for 72 hours. Cellular ATP levels (as a surrogate for viability) were measured using CeliTiter-Glo (Cat #G7570, Promega) or CeliTiter-Glo 3D (Cat #G9681, Promega). For co-treatment experiments, spent medium was removed 24 hours after cell seeding and replaced with medium containing a single concentration of the modulator of interest (for example, osimertinib).
(§4) Lentiviral-mediated miRNA and VHL Overexpression or Knockdown Infection.

H1975 organoids [4] = assay: Organoid number after lentiviral miR-147b inhibition and/or osimertinib; type: cell-based, human
Experimental: as §2, §4

H1975 cells [5] = assay: Cell viability of H1975 cells with HIF1A or EPAS1 knockdown or HIF1A A588T treated with osimertinib; type: cell-based, human; conditions: 3 days
Experimental: HIF1A and EPAS1 shRNAs and cDNA transfection. H1975 cells were seeded in a 6-well plate at 100,000 cells per well one day prior to transfection. A mixture of 2.5 μg pGFP-C-shLenti vector targeting HIF1A (OrGene, Cat #320380), EPAS1 (OriGene, Cat #TL315484), scrambled negative control (Cat #TR30021), lentiviral vector targeting HIF1A mutantA588T (OrGene, Cat #RC402571), control vector and 7.5 μL of PureFection (System Biosciences, Cat #LV750A-1) were used for transfection. The transfected cells were selected and maintained in 0.5 μg/ml puromycin (for shRNAs) or 600 μg/ml neomycin (for HIF1A A5887) in DMEM containing with 10% FBS for 9 days. Then the stable cells were passaged into 96-well plate at 3,000 cells per well followed by treatment with 100 nM osimertinib for 3 days. hsa-HIF1A targeting sequences: shRNA 1: […] (SEQ ID NO: 892), shRNA 2: […] (SEQ ID NO: 893), shRNA 3: […] (SEQ ID NO: 894), shRNA 4: […] (SEQ ID NO: 895). hsa-EPAS1 targeting sequences: shRNA 1: […] (SEQ ID NO: 896), shRNA 2: […] (SEQ ID NO: 897), shRNA 3: […] (SEQ ID NO: 898), shRNA 4: […] (SEQ ID NO: 899).

H1975 cells [6] = assay: Cell viability of osimertinib-treated H1975 cells co-incubated with SDH inhibitor dimethyl malonate; type: cell-based, human; conditions: 100 nM osimertinib co-incubated with 0, 0.03, 0.1 mM DMM for 3 days
Experimental: as §3

## COC(=O)CNC(=O)C(=O)OC [DMOG, dimethyloxaloylglycine]
[1]; H1975, 90 nM LNA miR-147b inhibitor + 10 μM DMOG
  pseudohypoxia gene levels reduced by miR-147b knockdown, on co-treatment with DMOG: rescued significantly
[1]; H1975, single dose of 10 μM DMOG vs vehicle
  expression of pseudohypoxia genes: upregulated expression
H1975 organoids [2]; osimertinib 25 nM, LNA-anti147b 90 nM, DMOG 10 μM
  osimertinib-tolerance (fractional viability) on co-treatment with DMOG: rescued reduced osimertinib-tolerance

## LNA miR-147b inhibitor: fluorescein-conjugated LNA anti-miR-147b, sequence AGCAGAAGCATTTCCGCACA (SEQ ID NO: 890), Cat #4100977-011 (LNA-modified, fluorescein conjugated, pattern and position not given here)
H1975 organoids [3]
  decrease of IC50 for osimertinib / increase of sensitivity of drug-tolerant organoids to osimertinib, compared to scrambled control: 30 fold
PDX_LU_10 organoids; 90 nM LNA miR-147b inhibitor on day 0 and day 2 + 25 nM osimertinib, day 8
  decrease of osimertinib-tolerance compared with control cells: 80%
PDX_LU_10 organoids; LNA miR-147b inhibitor pretreatment + osimertinib, day 8 to day 14
  PDX organoids volume increase, as % of that in control cells with the single agent of osimertinib: no more than 10%
[1]; H1975 cells, 90 nM LNA miR-147b inhibitor, three days, vs scrambled control
  expression levels of pseudohypoxia genes: reduced expression levels
H1975 organoids [2]; osimertinib 25 nM + LNA-anti147b 90 nM
  osimertinib-tolerance (fractional viability): reduced osimertinib-tolerance

## COc1cc2ncnc(Nc3ccc(F)c(Cl)c3)c2cc1OCCCN1CCOCC1 [gefitinib]
PC9 cells
  frequency of colony formation: 3.6%±0.3

## C=CC(=O)Nc1cc(Nc2nccc(-c3cn(C)c4ccccc34)n2)c(OC)cc1N(C)CCN(C)C [osimertinib]
HCC827 cells
  enhancement of drug-tolerance at the half-maximum inhibitory concentration (IC50) by enforced overexpression of miR-147b: 60 fold
PDX_LU_10 organoids; 25 nM osimertinib on day 1 and 4, day 6
  decrease of size of the tumor organoids: 50%
PDX_LU_10 organoids; 25 nM osimertinib on day 1 and 4, day 14
  increase (recovery) of organoid size: 40%
H1975 organoids [4]
  decrease of total number of organoids compared with the control group: two-fold
H1975 cells [5]; 100 nM osimertinib
  increase of drug-tolerance towards osimertinib upon overexpression of HIF1A A588T: up to two-fold
H1975 cells [5]; lentiviral shRNAs against HIF1A, 100 nM osimertinib
  increase of cell sensitivity towards osimertinib upon HIF1A knockdown: up to 2.6 fold
H1975 cells [5]; lentiviral shRNAs against HIF2A/EPAS1, 100 nM osimertinib
  drug sensitivity towards osimertinib upon HIF2A knockdown: did not change

## COC(=O)CC(=O)OC [DMM, dimethyl malonate]
H1975 cells [6]
  drug-tolerance to osimertinib (cell viability): promotes drug-tolerance; also recorded: effectively rescued

## O=c1c2ccccc2[nH]c(=S)n1CCN1CCC(=C(c2ccc(F)cc2)c2ccc(F)cc2)CC1 [R59949]
[1]; H1975 cells, 90 nM LNA miR-147b inhibitor + 30 μM R59949, three days
  pseudohypoxia gene levels reduced by LNA-miR-147b inhibitor, on co-treatment with R59949: further inhibited
[1]; H1975 cells, single dose of 30 μM R59949 vs vehicle
  expression of pseudohypoxia genes: downregulation
